The source of these data is patent EP0404162A1, “Composition for treating pigmentation” (priority 1989, dated 1990).

A short description of series [1]: Toxicity (LD50), subcutaneous administration, mice. As to conditions: mouse, in vivo, sc, read-out: LD₅₀. As to the method: (§1) The toxicity of kojic acid which is the effective ingredient of the present invention is extremely low; LD₅₀ is 2.050 mg/kg in mice and 2.260 mg/kg in rats, by subcutaneous administration. Therefore, the present invention is quite safe as a medicament.

Series [2] in a line: Toxicity (LD50), subcutaneous administration, rats. As to conditions: rat, in vivo, sc, read-out: LD₅₀. As to the method:
as §1

On to `O=c1cc(CO)occ1O` [kojic acid, 5-oxy-2-oxymethyl-γ-pyrone], for which the figures for the LD50 in series [1] and in series [2] were 2.05 mg/kg and 2.26 mg/kg, respectively.
